Experimental data taken from patent publication US8709420B2 (GlaxoSmithKline Intellectual Property Limited, priority 2010, dated 2014).
Values after ≈ are worked out from the molar mass of the structure shown. Values joined by “and” are separate entries in the source; they are usually repeats but may differ in a detail not shown here. Equal values may be shown once.

How the values were obtained:
[1] = tested on: NB88 tumor initiating cell line; assay: In-vitro cytotoxicity, Alamar Blue cell viability; type: cell-based; settings: topotecan alone, 72 h
Source text: (§1) SK-N-BE(2) (MYCN amplified) and SH-SY5Y (non-MYCN amplified neuroblastoma cell lines) were obtained from American Type Culture Collection (ATCC) (Manassas, Va.); BE(2)-c sub-clone of SK-N-BE(2) was obtained from Dr. Michelle Haber (Children's Cancer Institute for Medical Research, Lowry Cancer Research Centre, Randwick, Australia); Human Umbilical Vein Endothelial Cells (HUVECs) were obtained from Dr. Herman Yeger (The Hospital for Sick Children, Toronto, Ontario, Canada) and Tumor Initiating (TIC) cell lines NB12 and NB88, were obtained from Dr. David Kaplan (The Hospital for Sick Children, Toronto, Ontario, Canada). TICs NB12 and NB88 were isolated from the bone marrow metastases of relapsed high-risk neuroblastoma patients. Neuroblastoma cell lines SK-N-BE(2) and SH-SY5Y were grown in alpha-MEM containing 10% fetal bovine serum and 1% antibiotic mixture in humidified atmosphere at 37° C. with 5% CO2. NB12 and NB 88 were cultured as described previously.
(§2) Cell viability was determined by Alamar Blue assay. Alamar blue (10% of total volume was added to each well three hours prior to fluorometric detection). Fluorometric detection was performed using the SPECTRAmax gemini Spectrophotometer at excitation wavelength of 540 nm and emission wavelength of 590 nm.

[2] = tested on: NB12 tumor initiating cell line; assay: In-vitro cytotoxicity, Alamar Blue cell viability; type: cell-based; settings: topotecan alone, 72 h
Source text: as §1, §2

[3] = tested on: BE(2)-c neuroblastoma cell line; assay: In-vitro cytotoxicity, Alamar Blue cell viability; type: cell-based; settings: Homo sapiens, topotecan alone, 72 h
Source text: as §1, §2

[4] = tested on: circulating endothelial cells (CECs), CEPs, WBC; assay: Viable CECs, CEPs and WBC in KHOS osteosarcoma model; type: in vivo, NOD/SCID mice; settings: 21 days treatment
Experimental: Procedure: Approximately 160 μl of blood was sampled in heparinized microtubes at 21st day of treatment by saphenous vein puncturing. These blood samples were stored at 4° C. until analysis. CEC/CEP measurement was done within 48 h of blood collection by flow cytometry.

[5] = tested on: KHOS xenograft tumor microvasculature; assay: Microvessel density by von Willebrand factor staining of KHOS xenografts; type: in vivo, NOD/SCID mice; settings: after 28 days treatment
Experimental: (§3) Procedure: Formalin fixed tissues were paraffin embedded and sections cut at 7 um. […] The primary antibody was von Willebrand factor (#A0082; DakoCytomation, Glostrup, Denmark). After the primary antibody treatment, the slides were washed three times with PBS and incubated with broad spectrum poly-horse radish peroxidase (HRP) conjugate secondary antibody (87-9663, Invitrogen) for 1 h at room temperature. After washing three times with PBS, slides were stained with diaminobenzidine (DAB) and counterstained with hematoxylin. Microscopic images of six fields of high vascular density were digitally captured. The pixel values for stained areas were quantified using ImageJ software. Tumor angiogenesis was quantified as the number of pixels of regions positive for von Willebrand Factor.

HUVEC = assay: In-vitro cytotoxicity, Alamar Blue cell viability; type: cell-based; settings: Homo sapiens, 72 h treatment, read-out: IC50, reduction in viability of HUVEC cells
[6] = tested on: BE(2)-c experimental metastases; assay: BE(2)-c metastatic tumor model; type: in vivo, NOD/SCID mice
Procedure: 1×10^6 BE(2)-c cells were injected into lateral tail veins of NOD/SCID mice to generate ‘experimental’ metastases. […] The treatment was continued until death or end point.
In the metastatic model, the animals' organs (liver, kidney, adrenal, and femur) were removed after the death/sacrifice of animals, and were fixed in 10% formalin and paraffin-embedded. These paraffin-embedded sections were then stained with hematoxylin and eosin and microscopically examined.

HIF-1 alpha = assay: Immunohistochemistry of xenograft tumors, HIF-1 alpha; type: in vivo, NOD/SCID mice; settings: NB12 xenograft model
Experimental: as §3, with “Formalin” for “Procedure: Formalin”, “antibodies were anti-HIF-1 alpha (#NB100-131, Novus Biologicals, dilution 1:3000), HIF-2 alpha (#NB100-122, Novus Biologicals, dilution 1:100), Oct-4 (#2890S, Cell Signalling, dilution 1:100),” for “antibody was”, “treatment, all” for “treatment,”, “conjugate […]” for “conjugate”, “digitally captured for vWF-stained slides, while for HIF-1 alpha, HIF-2 alpha and Oct-4 stained slides, the images of six randomly selected areas were” for “digitally”, “vWF.” for “von Willebrand Factor.”

[7] = tested on: Rh4 rhabdomyosarcoma cell line; type: cell-based
Experimental: Materials: The cells were cultured at 37° C. in 5% CO2 in a-MEM (Multicell; Wisent, Inc., St. Bruno, Quebec, Canada) with 10% fetal bovine serum (FBS; Life Technologies, Grand Island, N.Y.) and 1% antibiotic mixture, containing 10000 IU penicillin and 10000 μg/ml streptomycin (Multicell; Wisent, Inc., St. Bruno, Quebec, Canada). Trypsin-EDTA, containing 0.05% trypsin and 0.53 mM EDTA was also purchased from Multicell; Wisent, Inc., St. Bruno, Quebec, Canada.
Procedure: A total of 20,000 cells were plated in each well of 48 well-plates and incubated at 37° C. in 5% CO2. After 48 h, the cells were treated with various concentrations of drugs. After 72 h of treatment, the cell viability was determined by alamar blue assay.

[8] = tested on: circulating endothelial progenitor cells (CEPs); assay: CEP/CEC flow cytometry in SK-N-BE(2) xenograft model; type: in vivo, mouse; settings: after one week treatment
Experimental: Approximately 160 μl of mouse blood was collected in K2-EDTA tubes by saphenous vein puncture from animals of the SK-N-BE(2) xenograft model (after one week treatment) and BE(2)-c metastatic model (after one week and four weeks treatment). Blood was immediately stored at 4° C. until analysis. The CEP/CECs were measured by flow cytometry within 48 hrs of blood collection as previously described. CEPs were defined as CD45−, VEGFR-2+, CD117+, and CD13+, while CECs were defined as CD45−, VEGFR-2+, CD117−, and CD13+. The absolute number of CEPs was calculated as the percentage of events collected in CEP enumeration gates multiplied by the total white blood cell (WBC) count.

[9] = previously reported; cited from earlier work

SMILES: CC[C@@]1(O)C(=O)OCc2c1cc1n(c2=O)Cc2cc3c(CN(C)C)c(O)ccc3nc2-1 [topotecan]
- IC50 [1]: 0.0039 µg/mL (≈ 0.00925 µM)
- IC50 [2]: 0.0631 µg/mL (≈ 0.15 µM)
- IC50 [3]: 0.0456 µg/mL (≈ 0.108 µM)
- CEP, significance versus Pulse [4]: * (* P < 0.05)
- WBC, significance versus Pulse [4]: * (* P < 0.05)
- White Blood Cell (WBC) levels compared to pulse TP [4]: significantly lower
- viable CEP levels compared to pulse TP [4]: significantly lower
- levels of viable CECs versus control ([4]; LDM TP 1.0 mg/kg, TP+PZ): significantly reduced
- levels of viable CEPs versus control ([4]; LDM TP 1.0 mg/kg, TP+PZ): significantly reduced
- levels of viable CECs versus control ([4]; Pulse TP 15 mg/Kg): significantly reduced
- levels of viable CEPs versus control ([4]; Pulse TP 15 mg/Kg): significantly reduced
- CEC, significance versus Control ([4]; Pulse topotecan 15 mg/Kg): * (* P < 0.05)
- CEP, significance versus Control ([4]; Pulse topotecan 15 mg/Kg): * (* P < 0.05)
- CEC, significance versus Control ([4]; TP (LDM 1.0 mg/kg), TP + PZ): ** (** P < 0.005)
- CEP, significance versus Control ([4]; TP (LDM 1.0 mg/kg), TP + PZ): ** (** P < 0.005)
- WBC, significance versus Control ([4]; TP (LDM 1.0 mg/kg), TP + PZ): * (* P < 0.05)
- microvessel densities versus control ([5]; LDM TP, TP+PZ): significantly lower
- microvessel densities versus control ([5]; Pulse TP): significantly lower
- IC50 (HUVEC): 0.00487 µg/mL (≈ 0.0116 µM)
- survival span, TP versus PZ treated group ([6]; P<0.05): higher
- histology of organs: tumors in liver and kidney ([6]; at time of death or end point): macroscopically detectable tumors in liver and kidney
- mean survival span ([6]; daily oral gavage from 14 days after i.v. cell injection, TP 1.0 mg/Kg, TP+PZ plus 150 mg/Kg pazopanib): 52.4 days

SMILES: Cc1ccc(Nc2nccc(N(C)c3ccc4c(C)n(C)nc4c3)n2)cc1S(N)(=O)=O [pazopanib, 5-[[4-[(2,3-dimethyl-2H-indazol-6-yl)methylamino]-2-pyrimidinyl]amino]-2-methylbenzenesulfonamide]
- HIF-1 alpha expression (HIF-1 alpha): increase
- cell viability / cytotoxicity [7]: did not show cytotoxicity
- mean values of CEPs compared to control [8]: statistically significant difference
- optimal plasma concentration of pazopanib effectiveness [9]: ≈ 18 μg/ml and 40 μM
